Reference: patent US7838271B2, “Microbiological method for producing amides” (priority 2001, dated 2010)
Like-named read-outs stand apart in the source and are kept apart here. Marks after values point to notes of the source that are not given here.

How the values were obtained:
[1] = tested on: Rhodococcus sp. FZ4; test: Influence of cofactors on growth during cultivation; type: cell-based; details: basal medium with cofactor 0.004 g/l, 28° C., 2 to 3 days
Description: (§1) The preculture medium of Table 2 was inoculated with strain Rhodococcus sp. FZ4 (DSM 13597), followed by incubation with shaking at 28° C. for 1 to 2 days. The preculture was transferred into the basal medium of Table 3, which contains either CoCl 2 or FeSO4, and cultured with shaking at 28° C. for 2 to 3 days. Nitrile hydratase activity was determined according to Example 1. A nitrile hydratase activity was present only when culturing Rhodococcus sp. FZ4 in the presence of cobalt.

[2] = tested on: Rhodococcus sp. FZ4 nitrile hydratase; test: Influence of cofactors on nitrile hydratase activity during cultivation; type: cell-based; details: basal medium with cofactor 0.004 g/l, 28° C., 2 to 3 days; substrate 3-cyanopyridine
Description: (§2) Nitrile hydratase activity was determined by incubating a reaction mixture comprising 3-cyanopyridine (1.0 M; 1.0 ml), potassium phosphate buffer (0.1 M, pH 7.0; 0.5 ml) and cell suspension (0.5 ml) with stirring at 20° C. for 5 min. The reaction was stopped by adding HCI (5 M; 0.1 ml). After filtration (0.2 μm filter) of the reaction mixture, the amount of nicotinamide produced was determined by means of HPLC (Waters Spherisorb 5 μ ODS2 (4.6×150 mm); KH2P04/H3P04 (10 mM; pH 2.8)/acetonitrile=9:1 (v/v); 1 ml/min; 230 nm). The total activity is expressed as μmol of nicotinamide produced/ (min×ml) and the specific activity is expressed as μmol of nicotinamide produced/(min×ml×OD610 nm).
as §1, with “1.” for “1. A nitrile hydratase activity was present only when culturing Rhodococcus sp. FZ4 in the presence of cobalt.”

[3] = tested on: purified Rhodococcus sp. FZ4 nitrile hydratase; test: Influence of metal ions on the activity of purified nitrile hydratase; type: biochemical; details: metal ions 1.0 mM; no addition = 100
Description: A solution comprising nitrile hydratase solution (0.695 μmol/min; 0.025 ml), potassium phosphate buffer (0.1 M; pH 7.0; 0.475 ml), distilled water (0.150 ml) and different potential inhibitors (0.100 ml) was incubated at 20° C. for 5 min. This was followed by the addition of 3-cyanopyridine (1.0 M; 0.250 ml). The concentration of the inhibitors in the reaction mixture was 1.0 mM. The reaction mixture was incubated at 20° C. for 10 min. The reaction was stopped by adding MeOH. The amount of nicotinamide produced was determined by means of HPLC according to Example 1.
The influence of metal ions on the activity of purified nitrile hydratase was carried out according to Example 24, but with the addition of metal ions instead of potential inhibitors. […]

[4] = tested on: Rhodococcus sp. FZ4 nitrile hydratase; type: cell-based
Description: as §2
(§3) The preculture medium of Table 2 was inoculated with strain Rhodococcus sp. FZ4 (DSM 13597), followed by incubation with shaking at 28° C. for 1 to 2 days. The preculture was transferred into the culture medium of Table 5, which contained different inducers, and cultured with shaking at 28° C. for 3 days. Nitrile hydratase activity was determined according to Example 1. Rhodococcus sp.

[5] = tested on: Rhodococcus sp. FZ4; type: cell-based
Description: as §3

[6] = tested on: Rhodococcus sp. FZ4 nitrile hydratase; type: cell-based; remark: listed apart in the source
Description: as §2
(§4) A cell suspension was incubated at different nicotinamide concentrations in the range from 0 to 20% (w/v) at 20° C. for 24 h. The cells were removed, washed and resuspended in potassium phosphate buffer (0.1 M; pH 7.0).
(§5) The influence of nicotinamide concentration on the nitrile hydratase activities of Rhodococcus sp. FZ4, Rhodococcus sp. GF270, Amycolatopsis sp. NA40 and Rhodococcus rhodochrous J1 was determined according to Example 9 using the respective microorganism and the nicotinamide concentration indicated in Table 11.

[7] = tested on: Rhodococcus sp. GF270 nitrile hydratase; type: cell-based
Description: as §2, §4, §5

[8] = water; cited from earlier work
[9] = tested on: Rhodococcus sp. FZ4 nitrile hydratase; test: Substrate specificity of nitrile hydratase activity, resting cells; type: cell-based
Description: as §2
Rhodococcus sp. FZ4 nitrile hydratase activity with respect to different substrates was determined according to Example 1, except that the appropriate substrate was used instead of 3-cyanopyridine and that the HPLC conditions were modified according to the substrate used.

[10] = tested on: Rhodococcus sp. GF270 nitrile hydratase; type: cell-based; details: incubation for 60 min
Description: as §2
A cell suspension was incubated at different 3-cyano-30 pyridine concentrations in the range from 0 to 10% (w/v) at 20° C. for 60 min. The cells were removed, washed and resuspended in potassium phosphate buffer (0.1 M; pH 7.0).
as §5, with “of 3-cyanopyridine” for “of nicotinamide”, “the 3-cyanopyridine concentrations” for “the nicotinamide concentration”, “Table 10.” for “Table 11.”

[11] = tested on: Rhodococcus rhodochrous J1 nitrile hydratase; type: cell-based; details: incubation for 15 min
Description: as §2, with “Nitrile hydratase activity was determined by incubating a reaction mixture comprising 3-cyanopyridine (1.0 M; 1.0 ml), potassium phosphate buffer (0.1 M, pH 7.0; 0.5 ml) and cell suspension (0.5 ml) with stirring at 20° C. for 5 min.” left out
(§6) […] The cells were removed, washed and resuspended in potassium phosphate buffer (0.1 M; pH 7.0).
as §5, with “of 3-cyanopyridine” for “of nicotinamide”, “the 3-cyanopyridine concentrations” for “the nicotinamide concentration”, “Table 10.” for “Table 11.”

[12] = tested on: Amycolatopsis sp. NA40 nitrile hydratase; test: KM value for 3-cyanopyridine, resting cells; type: cell-based; details: 30° C., pH 7.0
Description: The reaction was stopped by adding HC1(2 M; 0.1 ml).
FZ4, Rhodococcus sp. GF270 (DSM 12211; WO 99/05306), Amycolatopsis sp. NA40 (DSM 11617; WO 99/05306) and Rhodococcus rhodochrous J1 were determined according to Example 11 using the respective microorganism.

[13] = tested on: Rhodococcus sp. FZ4 nitrile hydratase; type: cell-based; details: for Relative activity: incubation for 60 min
Description: as §2, §6
as §5, with “of 3-cyanopyridine” for “of nicotinamide”, “the 3-cyanopyridine concentrations” for “the nicotinamide concentration”, “Table 10.” for “Table 11.”

[14] = tested on: Amycolatopsis sp. NA40 nitrile hydratase; type: cell-based; details: incubation for 15 min
Description: as §2, §6
as §5, with “of 3-cyanopyridine” for “of nicotinamide”, “the 3-cyanopyridine concentrations” for “the nicotinamide concentration”, “Table 10.” for “Table 11.”

[15] = tested on: purified Rhodococcus sp. FZ4 nitrile hydratase; test: Substrate specificity of purified nitrile hydratase; type: biochemical
Description: A reaction mixture comprising nitrile hydratase solution (0.695 μmol/min; 0.025 ml), different substrates (0.500 ml) and potassium phosphate buffer (0.1 M; pH 7.0; 0.475 ml) was incubated at 20° C. for 5 to 10 min. The concentrations of the substrates used were in the range from 0.015 to 0.250 M. The reaction was stopped by adding MeOH. The amount of amide produced was determined by means of HPLC.

[16] = tested on: Rhodococcus rhodochrous J1 nitrile hydratase; test: Substrate specificity of nitrile hydratase activity (comparison strain); type: cell-based; details: compound as substrate; 3-cyanopyridine = 100
[17] = tested on: purified Rhodococcus sp. FZ4 nitrile hydratase; test: KM value for 3-cyanopyridine, purified nitrile hydratase; type: biochemical; details: purified enzyme, potassium phosphate buffer pH 7.0, 20° C.
Description: The reaction mixture was incubated at 20° C. for 10 min. The reaction was stopped by adding methanol and the amount of nicotinamide produced was determined by means of HPLC according to Example 1.

[18] = tested on: Rhodococcus sp. FZ4 nitrile hydratase; type: cell-based; details: pH 7
Description: The reaction was stopped by adding MeOH. The reaction mixture was centrifuged (12 000 rpm, 5 min) and the amount of acetamide produced was determined by means of HPLC according to Example 14.

[19] = tested on: purified Rhodococcus sp. FZ4 nitrile hydratase; details: read-out: KM value for acetonitrile; pH 7
Description: The reaction mixture was incubated at 20° C. for 10 min. The reaction was stopped by adding methanol and the amount of acetamide produced was determined by means of HPLC according to Example 14.

[20] = tested on: Rhodococcus sp. FZ4 nitrile hydratase; type: cell-based; remark: listed apart in the source
Description: A reaction mixture comprising acetonitrile (0.2-19.0 M; 1.0-1.6 ml), aqueous NaCl solution (0.85% (w/v); 0.6-0.0 ml), potassium phosphate buffer (0.1 M; pH 7.0; 0.3 ml) and cell suspension (0.1 ml) was incubated with shaking at 20° C. for 10 min. The total reaction volume was 2.0 ml. The reaction was stopped by adding MeOH. The reaction mixture was centrifuged (12 000 rpm, 5 min) and the amount of acetamide produced was determined by means of HPLC according to Example 14.

[21] = culture medium with inducer 0.2% (w/v), 28° C., 3 days, substrate 3-cyanopyridine
[22] = culture medium with inducer 0.2% (w/v), 28° C., 3 days

## [Cl-].[Cl-].[Co+2] [CoC12]
[1]
  Growth: 2.79 OD610 nm
[2]
  Specific activity: 13.1 μmol/(min × ml × OD610 nm)
  Total activity: 38.1 µmol/min/mL
[3]
  Relative activity: 110%

## NC(=O)c1cccnc1 [Nicotinamide]
[4]
  Specific activity: 1.39 μmol/(min × ml × OD610 nm)
  Total activity: 4.94 µmol/min/mL
[5]
  Growth: 3.55 OD610 nm
[6]
  Relative activity: 100%
  nitrile hydratase activity after incubation with nicotinamide: corresponded approximately to the original nitrile hydratase activity
[7]
  Relative activity: 100%

## O=S(=O)([O-])[O-].[Fe+2] [FeSO4]
[1]
  Growth: 2.86 OD610 nm
[2]
  Specific activity: 0.346 μmol/(min × ml × OD610 nm)
  Total activity: 0.989 µmol/min/mL
[3]
  Relative activity: 113%

## CC(N)=O [Acetamide]
[4]; [21]
  Specific activity: 4.98 μmol/(min × ml × OD610 nm)
  Total activity: 21.6 µmol/min/mL
[8]
  concentration of an acetamide solution saturated at 30° C.: 220-230 g of acetamide in 100 ml of water
[5]; [22]
  Growth: 4.37 OD610 nm

## N#Cc1cccnc1 [3-Cyanopyridine]
[4]; [21]
  Specific activity: 2.21 μmol/(min × ml × OD610 nm)
  Total activity: 12.3 µmol/min/mL
[9]; compound as substrate, 3-cyanopyridine = 100, resting cells, 20° C.
  Relative activity: 100%
[10]; 3-cyanopyridine 2.5% (w/v)
  Relative activity: 100^a %
[10]; 3-cyanopyridine 5.0% (w/v)
  Relative activity: 100^a %
[10]; 3-cyanopyridine 7.5% (w/v)
  Relative activity: 100^a %
[10]; 3-cyanopyridine 10.0% (w/v)
  Relative activity: 100^a %
[11]; 3-cyanopyridine 5.0% (w/v)
  Relative activity: 86^b %
[11]; 3-cyanopyridine 10.0% (w/v)
  Relative activity: 63^b %
[12]
  Km: 41.7 mM
[5]; [22]
  Growth: 5.54 OD610 nm
[13]; 0 to 20% (w/v) for 60 minutes, 20° C.
  nitrile hydratase activity after incubation with 3-cyanopyridine: corresponded approximately to the original nitrile hydratase activity
[13]; 3-cyanopyridine 2.5% (w/v)
  Relative activity: 100^a %
[13]; 3-cyanopyridine 5.0% (w/v)
  Relative activity: 100^a %
[13]; 3-cyanopyridine 7.5% (w/v)
  Relative activity: 100^a %
[13]; 3-cyanopyridine 10.0% (w/v)
  Relative activity: 100^a %
[14]; 3-cyanopyridine 2.5% (w/v)
  Relative activity: 74^b %
[14]; 3-cyanopyridine 5.0% (w/v)
  Relative activity: 56^b %
[14]; 3-cyanopyridine 7.5% (w/v)
  Relative activity: 47^b %
[14]; 3-cyanopyridine 10.0% (w/v)
  Relative activity: 16^b %
[15]; substrate concentration 0.25 M, corresponds to 100%
  Total activity: ^aTotal activity: 4,164 μmol/(min × .ml).
[15]; substrate concentration 0.25 M, reference = 100
  Relative activity: 100^a %
[16]
  Relative activity: 100%
[17]
  Km: 80.5 mM

## CC#N [Acetonitrile]
[4]
  Specific activity: 4.13 μmol/(min × ml × OD610 nm)
  Total activity: 18.4 µmol/min/mL
[9]
  Relative activity: 646%
[18]
  nitrile hydratase activity after incubation with acetonitrile: nearly constant
[19]
  Km: 2.84 mM
[20]
  nitrile hydratase activity as a function of acetonitrile concentration: nearly constant
[5]
  Growth: 4.46 OD610 nm
[15]
  Relative activity: 1 008%
